Reference: patent publication US8686044B2, “Amide derivative, pest control agent containing the amide derivative, and use of the amide derivative” (Mitsui Chemicals Agro, Inc., priority 2008, dated 2014)
Read-outs that look alike come from different tables or passages of the source.

Assays:
Type in all cases: in vivo
[1] = system: Musca domestica; assay: Pesticidal test against Musca domestica (petri dish dry film); conditions: 24 h, concentration 100 ppm, female adults, examined after 1 day, 25° C., read-out: pesticidal rate
Description: Pesticidal Test against Musca domestica
1 ml of an acetone solution in which a test compound had been prepared at a predetermined concentration was added dropwise to a petri dish having a diameter of 9 cm, and air-dried, and then the female adults of Musca domestica were released and the petri dish was capped. They were left to stand in a thermostatic chamber at 25° C., and the numbers of the living pests and the dead pests were examined after 1 day. The test was carried out with five larvae per group in two replicates.

[2] = system: Helicoverpa armigera; assay: Pesticidal test against Helicoverpa armigera (cabbage leaf disk dip); conditions: foliar, 72 h, concentration 1 ppm, 2-stage larvae, examined after 3 days, 25° C., read-out: pesticidal rate
Description: Pesticidal Test against Helicoverpa armigera A cabbage leaf disk was immersed for 30 seconds in a chemical solution in which a test compound had been prepared at a predetermined concentration, and air-dried. The leaf disk was put into a 6-hole plastic cup having a filter paper laid on the bottom thereof, and 2-stage larvae of Helicoverpa armigera were released with one insect being released per hole. They were left to stand in a thermostatic chamber at 25° C., and the numbers of the living pests and the dead pests were examined after 3 days. The test was carried out with five larvae per group in two replicates. Further, the above compound (A) was used as a comparative compound.

[3] = system: Plutella xylostella; assay: Pesticidal test against Plutella xylostella (cabbage leaf dip); conditions: foliar, 144 h, concentration 1 ppm, 2-stage larvae, examined after 6 days, 25° C., read-out: pesticidal rate
Procedure, shortened: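 Second-stage larvae (5 per group, two replicates) were released onto air-dried cabbage leaf discs that had been immersed for 30 seconds in compound solution at a set concentration. Mortality was scored after 6 days at 25° C.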

[4] = system: Adoxophyes honmai; assay: Pesticidal test against Adoxophyes honmai (artificial feed dip); conditions: 144 h, 2-stage larvae, examined after 6 days, 25° C., read-out: pesticidal rate; for pest or weed control at 1 ppm: concentration 1 ppm
Description: Pesticidal Test against Adoxophyes honmai A thinly sliced artificial feed was immersed for 30 seconds in a chemical solution in which a test compound had been prepared at a predetermined concentration, and air-dried, and then put into a 7 cm polyethylene cup having a filter paper laid on the bottom thereof, and 2-stage larvae of Adoxophyes honmai were released. They were left to stand in a thermostatic chamber at 25° C., and the numbers of the living pests and the dead pests were examined after 6 days. The test was carried out with five larvae per group in two replicates. Further, the above compound (A) was used as a comparative compound.

[5] = system: Spodoptera litura; assay: Pesticidal test against Spodoptera litura (cabbage leaf dip); conditions: foliar, 144 h, concentration 1 ppm, 2-stage larvae, examined after 6 days, 25° C., read-out: pesticidal rate
Procedure, shortened: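 Cabbage leaf pieces dipped 30 seconds in compound solution at a predetermined concentration and air-dried, then offered to second-stage larvae, five per group in two replicates. Held at 25° C. Living and dead larvae counted after 6 days.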

[6] = system: Laodelphax striatellus; assay: Pesticidal test against Laodelphax striatellus (rice seedling spray); conditions: 144 h, read-out: pesticidal rate
Procedure, shortened: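 Rice seedlings sprayed with 2.5 ml acetone solution of compound at a predetermined concentration, air-dried, then infested with third-stage Laodelphax striatellus larvae in capped water-containing tubes at 25 °C. Living and dead insects counted after 6 days; ten larvae per group, two replicates.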

[7] = concentration 100 ppm, 3-stage larvae, examined after 6 days, 25° C.

O=C(Nc1cccc(C(=O)Nc2c(I)cc(C(F)(C(F)(F)F)C(F)(F)C(F)(F)F)cc2C(F)(F)F)c1)c1ccc(F)cc1 (stereo not drawn) [6-505]
≥ 70%: pest or weed control at 100 ppm [1] | pest or weed control at 1 ppm [2] | pest or weed control at 1 ppm [3] | pest or weed control at 1 ppm [4] | pest or weed control at 1 ppm [5]

CN(C(=O)c1cccc(C#N)c1)c1cccc(C(=O)Nc2c(I)cc(C(F)(C(F)(F)F)C(F)(F)C(F)(F)F)cc2C(F)(F)F)c1F (stereo not drawn) [7-1828]
≥ 70%: pest or weed control at 100 ppm [1] | pest or weed control at 1 ppm [3] | pest or weed control at 100 ppm [6, 7] | pest or weed control at 1 ppm [5]

CN(C(=O)c1ccccc1)c1cccc(C(=O)Nc2c(Br)cc(C(F)(C(F)(F)F)C(F)(F)C(F)(F)F)cc2C(F)(F)F)c1 (stereo not drawn) [7-346]
≥ 70%: pest or weed control at 100 ppm [1] | pest or weed control at 1 ppm [3] | pest or weed control at 100 ppm [6, 7] | pest or weed control at 1 ppm [5]

CN(C(=O)c1ccc(C#N)cc1)c1cccc(C(=O)Nc2c(I)cc(C(F)(C(F)(F)F)C(F)(F)F)cc2C(F)(F)F)c1F [7-1751]
≥ 70%: pest or weed control at 1 ppm [2] | pest or weed control at 1 ppm [3] | pest or weed control at 100 ppm [6, 7] | pest or weed control at 1 ppm [5]

CN(C(=O)c1ccccc1)c1cccc(C(=O)N(C)c2c(Br)cc(C(F)(C(F)(F)F)C(F)(F)F)cc2C(F)(F)F)c1F [9-2164, N-(2-bromo-4-(perfluoropropan-2-yl)-6-(trifluoromethyl)phenyl)-2-fluoro-N-methyl-3-(N-methylbenzamide)benzamide]
≥ 70%: pest or weed control at 100 ppm [1] | pest or weed control at 1 ppm [3] | pest or weed control at 100 ppm [6, 7] | pest or weed control at 1 ppm [5]

O=C(Nc1cccc(C(=O)Nc2c(Br)cc(C(F)(C(F)(F)F)C(F)(F)C(F)(F)F)cc2C(F)(F)F)c1)c1cccc(F)c1 (stereo not drawn) [6-348]
≥ 70%: pest or weed control at 100 ppm [1] | pest or weed control at 1 ppm [2] | pest or weed control at 1 ppm [3] | pest or weed control at 1 ppm [4] | pest or weed control at 1 ppm [5]

O=C(Nc1cccc(C(=O)Nc2c(I)cc(C(F)(C(F)(F)F)C(F)(F)F)cc2I)c1F)c1cccc(F)c1 [6-1262]
≥ 70%: pest or weed control at 1 ppm [2] | pest or weed control at 1 ppm [3] | pest or weed control at 1 ppm [4] | pest or weed control at 100 ppm [6, 7] | pest or weed control at 1 ppm [5]

CN(C(=O)c1cccc(C#N)c1)c1cccc(C(=O)Nc2c(I)cc(C(F)(C(F)(F)F)C(F)(F)C(F)(F)F)cc2C(F)(F)F)c1 (stereo not drawn) [7-522]
≥ 70%: pest or weed control at 100 ppm [1] | pest or weed control at 1 ppm [2] | pest or weed control at 1 ppm [3] | pest or weed control at 1 ppm [4] | pest or weed control at 1 ppm [5]

O=C(Nc1cccc(C(=O)Nc2c(I)cc(C(F)(C(F)(F)F)C(F)(F)C(F)(F)F)cc2I)c1F)c1ccc(F)cc1 (stereo not drawn) [6-1341]
≥ 70%: pest or weed control at 100 ppm [1] | pest or weed control at 1 ppm [2] | pest or weed control at 1 ppm [3] | pest or weed control at 1 ppm [4] | pest or weed control at 100 ppm [6, 7] | pest or weed control at 1 ppm [5]

CN(C(=O)c1cccc(F)c1)c1cccc(C(=O)Nc2c(I)cc(C(F)(C(F)(F)F)C(F)(F)C(F)(F)F)cc2I)c1F (stereo not drawn) [7-1340]
≥ 70%: pest or weed control at 100 ppm [1] | pest or weed control at 1 ppm [3] | pest or weed control at 100 ppm [6, 7] | pest or weed control at 1 ppm [5]

O=C(Nc1cccc(C(=O)Nc2c(I)cc(C(F)(C(F)(F)F)C(F)(F)F)cc2C(F)(F)F)c1F)c1ccccc1Cl [6-1734]
≥ 70%: pest or weed control at 100 ppm [1] | pest or weed control at 1 ppm [3] | pest or weed control at 100 ppm [6, 7] | pest or weed control at 1 ppm [5]

O=C(Nc1c(I)cc(C(F)(C(F)(F)F)C(F)(F)C(F)(F)F)cc1C(F)(F)F)c1cccc(NC(=O)c2c(F)cccc2F)c1 (stereo not drawn) [6-524]
≥ 70%: pest or weed control at 100 ppm [1] | pest or weed control at 1 ppm [2] | pest or weed control at 1 ppm [3] | pest or weed control at 1 ppm [4] | pest or weed control at 1 ppm [5]

O=C(Nc1cccc(C(=O)Nc2c(I)cc(C(F)(C(F)(F)F)C(F)(F)C(F)(F)F)cc2C(F)(F)F)c1)c1cccc(F)c1 (stereo not drawn) [6-504]
≥ 70%: pest or weed control at 100 ppm [1] | pest or weed control at 1 ppm [2] | pest or weed control at 1 ppm [3] | pest or weed control at 1 ppm [4] | pest or weed control at 1 ppm [5]

CN(C(=O)c1c(F)cccc1F)c1cccc(C(=O)Nc2c(Br)cc(C(F)(C(F)(F)F)C(F)(F)C(F)(F)F)cc2C(F)(F)F)c1 (stereo not drawn) [7-368]
≥ 70%: pest or weed control at 100 ppm [1] | pest or weed control at 1 ppm [3] | pest or weed control at 100 ppm [6, 7] | pest or weed control at 1 ppm [5]

CN(C(=O)c1c(F)cccc1F)c1cccc(C(=O)Nc2c(I)cc(C(F)(C(F)(F)F)C(F)(F)C(F)(F)F)cc2I)c1F (stereo not drawn) [7-1360]
≥ 70%: pest or weed control at 100 ppm [1] | pest or weed control at 1 ppm [3] | pest or weed control at 100 ppm [6, 7] | pest or weed control at 1 ppm [5]

O=C(Nc1cccc(C(=O)Nc2c(I)cc(C(F)(C(F)(F)F)C(F)(F)C(F)(F)F)cc2C(F)(F)F)c1F)c1cccc(F)c1 (stereo not drawn) [6-1810]
≥ 70%: pest or weed control at 100 ppm [1] | pest or weed control at 1 ppm [3] | pest or weed control at 100 ppm [6, 7] | pest or weed control at 1 ppm [5]

O=C(Nc1cccc(C(=O)Nc2c(I)cc(C(F)(C(F)(F)F)C(F)(F)C(F)(F)F)cc2C(F)(F)F)c1F)c1ccccc1 (stereo not drawn) [6-1808]
≥ 70%: pest or weed control at 100 ppm [1] | pest or weed control at 1 ppm [2] | pest or weed control at 1 ppm [3] | pest or weed control at 100 ppm [6, 7] | pest or weed control at 1 ppm [5]

N#Cc1ccc(C(=O)Nc2cccc(C(=O)Nc3c(I)cc(C(F)(C(F)(F)F)C(F)(F)C(F)(F)F)cc3C(F)(F)F)c2)cc1 (stereo not drawn) [6-523]
≥ 70%: pest or weed control at 100 ppm [1] | pest or weed control at 1 ppm [2] | pest or weed control at 1 ppm [3] | pest or weed control at 10 ppm ([4]; concentration 10 ppm) | pest or weed control at 1 ppm [5]

N#Cc1ccc(C(=O)Nc2cccc(C(=O)Nc3c(I)cc(C(F)(C(F)(F)F)C(F)(F)F)cc3I)c2F)cc1 [6-1281]
≥ 70%: pest or weed control at 100 ppm [1] | pest or weed control at 1 ppm [2] | pest or weed control at 1 ppm [3] | pest or weed control at 100 ppm [6, 7] | pest or weed control at 1 ppm [5]

O=C(Nc1cccc(C(=O)Nc2c(Br)cc(C(F)(C(F)(F)F)C(F)(F)C(F)(F)F)cc2C(F)(F)F)c1F)c1cccnc1Cl (stereo not drawn) [6-1688]
≥ 70%: pest or weed control at 1 ppm [3] | pest or weed control at 1 ppm [4] | pest or weed control at 100 ppm [6, 7] | pest or weed control at 1 ppm [5]

CN(C(=O)c1cccc(C#N)c1)c1cccc(C(=O)Nc2c(Br)cc(C(F)(C(F)(F)F)C(F)(F)C(F)(F)F)cc2Br)c1F (stereo not drawn) [7-1202]
≥ 70%: pest or weed control at 1 ppm [3] | pest or weed control at 1 ppm [4] | pest or weed control at 100 ppm [6, 7] | pest or weed control at 1 ppm [5]

O=C(Nc1c(I)cc(C(F)(C(F)(F)F)C(F)(F)C(F)(F)F)cc1I)c1cccc(NC(=O)c2c(F)cccc2F)c1F (stereo not drawn) [6-1360]
≥ 70%: pest or weed control at 100 ppm [1] | pest or weed control at 1 ppm [3] | pest or weed control at 100 ppm [6, 7] | pest or weed control at 1 ppm [5]

CN(C(=O)OCC(Cl)(Cl)Cl)c1cccc(C(=O)Nc2c(I)cc(C(F)(C(F)(F)F)C(F)(F)F)cc2C(F)(F)F)c1F [12-835]
≥ 70%: pest or weed control at 100 ppm [1] | pest or weed control at 1 ppm [3] | pest or weed control at 100 ppm [6] | pest or weed control at 1 ppm [5]

N#Cc1cccc(C(=O)Nc2cccc(C(=O)Nc3c(I)cc(C(F)(C(F)(F)F)C(F)(F)C(F)(F)F)cc3C(F)(F)F)c2)c1 (stereo not drawn) [6-522]
≥ 70%: pest or weed control at 100 ppm [1] | pest or weed control at 1 ppm [2] | pest or weed control at 1 ppm [3] | pest or weed control at 1 ppm [4] | pest or weed control at 1 ppm [5]

N#Cc1cccc(C(=O)Nc2cccc(C(=O)Nc3c(Br)cc(C(F)(C(F)(F)F)C(F)(F)C(F)(F)F)cc3Br)c2F)c1 (stereo not drawn) [6-1202]
≥ 70%: pest or weed control at 1 ppm [3] | pest or weed control at 1 ppm [4] | pest or weed control at 100 ppm [6, 7] | pest or weed control at 1 ppm [5]

O=C(Nc1c(I)cc(C(F)(C(F)(F)F)C(F)(F)F)cc1C(F)(F)F)c1cccc(NC(=O)c2ccc(F)cc2Cl)c1 [6-449]
≥ 70%: pest or weed control at 1 ppm [2] | pest or weed control at 1 ppm [3] | pest or weed control at 1 ppm [4] | pest or weed control at 1 ppm [5]

CN(C(=O)c1ccccc1)c1cccc(C(=O)Nc2c(Cl)cc(C(F)(C(F)(F)F)C(F)(F)F)cc2C(F)(F)F)c1F [7-1417]
≥ 70%: pest or weed control at 100 ppm [1] | pest or weed control at 1 ppm [3] | pest or weed control at 100 ppm [6, 7] | pest or weed control at 1 ppm [5]
